The IC50 is the concentration that gives 50% inhibition.

Each structure is given as a SMILES string.

Common to all, as to test: 33PanQinase Activity Assay (in vitro protein kinase activity assay)
What all share (type): biochemical
What all share (details): recombinant purified kinase, 1 µM [γ-33P]-ATP

One experiment concerns the target T1, Aurora B (Homo sapiens, UniProt Q96GD4).
T1 construct: made in house; host or cells: Sf9 insect cells (baculovirus)
The method, then:
(§1) Inhibition of protein kinases by compounds was measured in proprietary protein kinase activity assay (^33PanQinase® Activity Assay) using recombinant purified protein kinases. All protein kinases were expressed in Sf9 insect cells as recombinant GST-fusion proteins or His-tagged proteins by means of the baculovirus expression system. All kinases were produced from human cDNAs. Kinases were purified by affinity chromatography using either GSH-agarose (Sigma) or Ni-NTH-agarose (Qiagen). The purity of the protein kinases was examined by SDS-PAGE/Coomassie staining. Activity was measured by determination of the incorporation of radio labelled phosphate into a substrate. The reaction cocktails for all enzymes contained 60 mM HEPES-NaOH, 10 mM Tris/HCl, pH 7.5, 20 mM NaCl, 3 mM MgCl2, 3 mM MnCl2, 3 µM Na-orthovanadate, 2 mM DTT, 4% glycerol, 1 µM [γ-^33P]-ATP (approx. 6 x 10^5 cpm per well), protein kinase , and substrate. Table 1: Protein kinases inhibited with high potency in vitro by compound PQ-012, PQ-013, PQ-014, PQ-016, PQ-041, PQ-042.

A further experiment addresses T2, CHK2 (Homo sapiens, UniProt O96017).
T2 construct: made in house; host or cells: Sf9 insect cells (baculovirus)
The method, then:
as §1

Another experiment concerns the target T3, FAK (Homo sapiens, UniProt Q05397).
T3 construct: made in house; host or cells: Sf9 insect cells (baculovirus)
The protocol: as §1

A further experiment addresses T4, FLT3 D835Y (Homo sapiens, UniProt P36888, D835Y).
T4 construct: made in house; host or cells: Sf9 insect cells (baculovirus)
T4 sequence (P36888 27-993 D835Y): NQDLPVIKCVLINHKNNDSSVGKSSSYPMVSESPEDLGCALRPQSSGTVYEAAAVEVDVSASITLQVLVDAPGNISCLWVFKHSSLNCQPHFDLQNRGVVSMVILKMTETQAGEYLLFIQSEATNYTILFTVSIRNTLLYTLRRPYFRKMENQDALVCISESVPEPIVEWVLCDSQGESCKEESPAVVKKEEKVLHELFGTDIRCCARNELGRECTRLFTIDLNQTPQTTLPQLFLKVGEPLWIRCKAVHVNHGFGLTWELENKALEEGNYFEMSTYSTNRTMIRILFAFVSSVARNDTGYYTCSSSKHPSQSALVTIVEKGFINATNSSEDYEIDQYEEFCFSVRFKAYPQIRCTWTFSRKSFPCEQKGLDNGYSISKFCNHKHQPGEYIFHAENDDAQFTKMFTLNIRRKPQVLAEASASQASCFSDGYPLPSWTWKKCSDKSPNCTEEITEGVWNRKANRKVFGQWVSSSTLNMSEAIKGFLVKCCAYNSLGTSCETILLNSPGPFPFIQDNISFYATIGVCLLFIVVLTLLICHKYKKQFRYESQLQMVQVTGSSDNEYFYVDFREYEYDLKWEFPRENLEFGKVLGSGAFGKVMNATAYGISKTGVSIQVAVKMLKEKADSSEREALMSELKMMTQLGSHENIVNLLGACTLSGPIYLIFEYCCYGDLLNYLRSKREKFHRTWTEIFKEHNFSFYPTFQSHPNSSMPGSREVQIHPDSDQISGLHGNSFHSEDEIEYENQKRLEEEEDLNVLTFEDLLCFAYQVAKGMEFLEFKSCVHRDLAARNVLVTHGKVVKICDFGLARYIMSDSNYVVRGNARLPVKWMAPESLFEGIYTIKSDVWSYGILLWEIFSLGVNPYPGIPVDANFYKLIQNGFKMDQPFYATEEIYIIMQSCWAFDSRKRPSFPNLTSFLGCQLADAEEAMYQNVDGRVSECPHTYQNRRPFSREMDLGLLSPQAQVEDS
The method, then: as §1

A further experiment addresses T5, MAP4K4 (Homo sapiens, UniProt O95819).
T5 construct: made in house; host or cells: Sf9 insect cells (baculovirus)
The protocol: as §1

The target in another experiment is T6, PDGFR-alpha (Homo sapiens, UniProt P16234).
T6 construct: made in house; host or cells: Sf9 insect cells (baculovirus)
The method, then:
as §1

Another experiment deals with T7, PDGFR-beta (Homo sapiens, UniProt P09619).
T7 construct: made in house; host or cells: Sf9 insect cells (baculovirus)
The protocol: as §1

A further experiment deals with T8, PRKG2 (Homo sapiens, UniProt Q13237).
T8 construct: made in house; host or cells: Sf9 insect cells (baculovirus)
T8 sequence (Q13237 1-762): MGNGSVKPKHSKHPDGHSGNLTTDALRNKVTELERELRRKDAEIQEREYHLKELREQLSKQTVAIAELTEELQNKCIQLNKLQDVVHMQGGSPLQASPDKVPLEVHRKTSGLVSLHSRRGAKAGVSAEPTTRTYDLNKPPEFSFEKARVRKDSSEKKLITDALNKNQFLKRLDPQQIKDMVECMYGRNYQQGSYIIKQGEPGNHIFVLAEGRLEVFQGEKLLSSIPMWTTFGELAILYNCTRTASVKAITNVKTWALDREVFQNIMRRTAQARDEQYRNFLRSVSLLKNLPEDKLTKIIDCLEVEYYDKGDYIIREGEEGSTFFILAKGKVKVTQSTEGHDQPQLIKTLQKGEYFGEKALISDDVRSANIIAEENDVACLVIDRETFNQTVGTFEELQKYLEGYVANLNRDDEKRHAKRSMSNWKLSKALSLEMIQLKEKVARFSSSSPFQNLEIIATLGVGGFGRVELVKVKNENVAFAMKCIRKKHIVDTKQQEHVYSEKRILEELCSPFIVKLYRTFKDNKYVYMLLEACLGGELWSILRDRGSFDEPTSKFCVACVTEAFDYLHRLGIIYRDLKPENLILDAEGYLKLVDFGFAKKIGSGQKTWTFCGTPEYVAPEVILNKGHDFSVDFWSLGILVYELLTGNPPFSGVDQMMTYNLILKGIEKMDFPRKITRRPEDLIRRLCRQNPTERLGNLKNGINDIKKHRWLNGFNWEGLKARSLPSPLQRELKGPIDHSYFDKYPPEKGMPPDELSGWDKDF
The method, then:
as §1

In a further experiment the target is T9, RSK1 (Homo sapiens, UniProt Q15418).
T9 construct: made in house; host or cells: Sf9 insect cells (baculovirus)
The method, then:
as §1

A further experiment addresses T10, RSK3 (Homo sapiens, UniProt Q15349).
T10 construct: made in house; host or cells: Sf9 insect cells (baculovirus)
The method, then: as §1

Another experiment has as its target T11, RSK4 (Homo sapiens, UniProt Q9UK32).
T11 construct: made in house; host or cells: Sf9 insect cells (baculovirus)
The protocol: as §1

T7 sequence (P09619 33-1106): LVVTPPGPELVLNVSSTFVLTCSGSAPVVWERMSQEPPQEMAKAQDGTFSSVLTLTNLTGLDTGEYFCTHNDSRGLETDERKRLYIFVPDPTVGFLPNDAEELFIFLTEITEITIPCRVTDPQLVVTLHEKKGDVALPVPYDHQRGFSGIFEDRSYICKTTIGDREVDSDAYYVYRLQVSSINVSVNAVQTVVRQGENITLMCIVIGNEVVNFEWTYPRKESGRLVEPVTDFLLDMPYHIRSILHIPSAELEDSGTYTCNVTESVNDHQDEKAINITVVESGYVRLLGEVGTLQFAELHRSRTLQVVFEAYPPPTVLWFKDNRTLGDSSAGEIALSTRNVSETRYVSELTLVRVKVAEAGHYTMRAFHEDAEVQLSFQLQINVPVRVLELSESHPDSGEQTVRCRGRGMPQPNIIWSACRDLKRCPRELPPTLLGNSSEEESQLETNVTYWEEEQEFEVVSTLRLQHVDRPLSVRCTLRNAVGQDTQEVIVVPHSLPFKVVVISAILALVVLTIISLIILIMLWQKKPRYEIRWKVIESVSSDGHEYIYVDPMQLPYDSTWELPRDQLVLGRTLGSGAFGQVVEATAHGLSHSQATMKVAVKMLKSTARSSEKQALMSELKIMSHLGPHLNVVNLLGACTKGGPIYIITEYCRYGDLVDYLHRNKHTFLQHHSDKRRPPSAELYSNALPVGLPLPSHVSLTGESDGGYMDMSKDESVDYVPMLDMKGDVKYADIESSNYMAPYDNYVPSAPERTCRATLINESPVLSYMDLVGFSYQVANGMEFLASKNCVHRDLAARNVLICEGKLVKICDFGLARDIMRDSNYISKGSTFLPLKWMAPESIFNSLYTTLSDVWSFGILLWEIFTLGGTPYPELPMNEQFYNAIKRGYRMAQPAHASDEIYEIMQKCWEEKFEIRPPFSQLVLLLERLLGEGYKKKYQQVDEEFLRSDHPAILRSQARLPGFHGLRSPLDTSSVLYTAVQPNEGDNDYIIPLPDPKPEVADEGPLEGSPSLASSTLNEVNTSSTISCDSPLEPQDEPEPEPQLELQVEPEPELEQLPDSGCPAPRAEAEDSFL
T10 sequence (Q15349 whole entry): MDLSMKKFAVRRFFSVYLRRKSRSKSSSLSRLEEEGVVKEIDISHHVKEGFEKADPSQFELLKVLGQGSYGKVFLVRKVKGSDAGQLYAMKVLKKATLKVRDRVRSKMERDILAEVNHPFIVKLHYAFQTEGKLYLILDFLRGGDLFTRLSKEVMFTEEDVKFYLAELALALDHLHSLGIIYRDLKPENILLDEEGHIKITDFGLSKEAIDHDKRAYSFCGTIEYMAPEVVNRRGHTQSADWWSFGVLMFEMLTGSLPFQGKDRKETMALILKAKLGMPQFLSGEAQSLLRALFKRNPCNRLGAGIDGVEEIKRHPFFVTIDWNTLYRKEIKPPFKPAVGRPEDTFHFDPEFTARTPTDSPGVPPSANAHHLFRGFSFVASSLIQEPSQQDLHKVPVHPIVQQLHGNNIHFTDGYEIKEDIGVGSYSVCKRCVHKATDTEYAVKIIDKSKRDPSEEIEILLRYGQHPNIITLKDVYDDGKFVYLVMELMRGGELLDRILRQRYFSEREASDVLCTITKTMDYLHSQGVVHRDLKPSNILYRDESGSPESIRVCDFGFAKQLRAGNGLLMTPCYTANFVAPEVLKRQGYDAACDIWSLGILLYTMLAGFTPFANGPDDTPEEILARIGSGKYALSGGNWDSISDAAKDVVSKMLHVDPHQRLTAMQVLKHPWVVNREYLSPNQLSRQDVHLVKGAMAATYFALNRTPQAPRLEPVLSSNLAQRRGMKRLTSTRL
T1 sequence (Q96GD4 whole entry): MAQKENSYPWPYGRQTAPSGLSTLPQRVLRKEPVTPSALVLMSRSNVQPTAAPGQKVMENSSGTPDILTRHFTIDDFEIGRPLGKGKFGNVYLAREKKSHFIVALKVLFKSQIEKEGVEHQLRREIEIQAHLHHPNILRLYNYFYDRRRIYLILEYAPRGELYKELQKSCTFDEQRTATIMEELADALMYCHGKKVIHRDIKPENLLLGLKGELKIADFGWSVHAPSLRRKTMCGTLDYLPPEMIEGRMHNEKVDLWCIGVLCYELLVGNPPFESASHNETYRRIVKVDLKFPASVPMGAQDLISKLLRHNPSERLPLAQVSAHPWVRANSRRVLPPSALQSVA
T9 sequence (Q15418 whole entry): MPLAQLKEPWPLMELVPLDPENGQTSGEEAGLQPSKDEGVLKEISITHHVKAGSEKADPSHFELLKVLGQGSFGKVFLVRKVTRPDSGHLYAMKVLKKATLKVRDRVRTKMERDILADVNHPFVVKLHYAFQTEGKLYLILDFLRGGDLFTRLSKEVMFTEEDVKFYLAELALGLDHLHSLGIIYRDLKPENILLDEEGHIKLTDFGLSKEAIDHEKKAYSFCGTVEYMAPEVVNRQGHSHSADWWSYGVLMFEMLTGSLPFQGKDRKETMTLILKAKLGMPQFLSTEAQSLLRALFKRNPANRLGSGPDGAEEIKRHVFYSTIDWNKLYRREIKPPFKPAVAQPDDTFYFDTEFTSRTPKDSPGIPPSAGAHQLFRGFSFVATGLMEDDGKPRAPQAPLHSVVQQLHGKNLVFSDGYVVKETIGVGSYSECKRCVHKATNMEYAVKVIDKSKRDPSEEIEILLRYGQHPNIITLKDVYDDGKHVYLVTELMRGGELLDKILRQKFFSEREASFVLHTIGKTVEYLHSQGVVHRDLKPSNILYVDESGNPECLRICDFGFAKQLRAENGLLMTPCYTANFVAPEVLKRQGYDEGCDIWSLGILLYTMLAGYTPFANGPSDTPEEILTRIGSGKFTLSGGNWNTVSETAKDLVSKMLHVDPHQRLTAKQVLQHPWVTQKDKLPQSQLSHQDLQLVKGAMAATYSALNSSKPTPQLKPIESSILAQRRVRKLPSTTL
T2 sequence (O96017 whole entry): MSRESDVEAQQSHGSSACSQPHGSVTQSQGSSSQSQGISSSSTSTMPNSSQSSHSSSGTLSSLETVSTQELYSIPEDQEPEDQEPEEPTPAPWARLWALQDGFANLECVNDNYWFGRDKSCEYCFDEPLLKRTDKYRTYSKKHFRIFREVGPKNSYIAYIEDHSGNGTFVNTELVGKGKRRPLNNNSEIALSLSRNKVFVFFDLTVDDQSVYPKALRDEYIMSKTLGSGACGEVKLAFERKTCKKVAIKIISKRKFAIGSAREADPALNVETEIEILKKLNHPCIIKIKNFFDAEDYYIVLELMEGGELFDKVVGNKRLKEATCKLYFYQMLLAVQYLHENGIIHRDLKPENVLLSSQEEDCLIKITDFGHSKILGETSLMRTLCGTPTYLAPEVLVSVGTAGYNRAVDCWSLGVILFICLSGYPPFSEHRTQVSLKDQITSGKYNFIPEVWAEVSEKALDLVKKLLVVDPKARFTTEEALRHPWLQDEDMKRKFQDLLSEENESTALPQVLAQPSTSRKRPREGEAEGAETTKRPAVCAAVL
T11 sequence (Q9UK32 whole entry): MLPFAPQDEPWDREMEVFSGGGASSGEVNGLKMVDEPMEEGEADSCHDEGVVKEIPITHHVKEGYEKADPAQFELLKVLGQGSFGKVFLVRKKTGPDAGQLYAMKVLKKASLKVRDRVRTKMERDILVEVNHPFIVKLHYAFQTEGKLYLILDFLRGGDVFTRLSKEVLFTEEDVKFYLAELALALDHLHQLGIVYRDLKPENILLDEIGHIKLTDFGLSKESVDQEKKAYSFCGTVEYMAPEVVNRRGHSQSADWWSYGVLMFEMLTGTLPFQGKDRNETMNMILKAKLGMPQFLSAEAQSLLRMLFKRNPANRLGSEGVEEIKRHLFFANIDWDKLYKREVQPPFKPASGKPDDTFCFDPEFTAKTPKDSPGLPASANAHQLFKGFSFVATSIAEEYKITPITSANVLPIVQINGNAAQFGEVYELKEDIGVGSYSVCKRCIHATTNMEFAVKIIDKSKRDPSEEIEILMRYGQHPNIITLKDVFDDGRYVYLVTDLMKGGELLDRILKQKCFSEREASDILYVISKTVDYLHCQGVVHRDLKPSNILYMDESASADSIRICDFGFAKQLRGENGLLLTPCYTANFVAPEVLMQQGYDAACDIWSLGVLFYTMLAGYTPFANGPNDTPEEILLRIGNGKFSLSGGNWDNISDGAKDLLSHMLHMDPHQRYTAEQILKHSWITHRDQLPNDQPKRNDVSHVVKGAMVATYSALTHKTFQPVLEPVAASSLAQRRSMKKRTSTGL

For the molecule `COc1ccc2[nH]c3c(c4c(c5c6cc(OC)ccc6n(C)c35)C(=O)NC4=O)c2c1` [PQ-013, 6,7,12,13-Tetrahydro-3,9-dimethoxy-12-methyl-5,7 dioxo-5H-indolo [2,3-a] pyrrolo [3,4-c]-carbazole], the IC50 at Aurora B is 0.21 µM; on CHK2, 0.04 µM; at FAK, 36 µM; at FLT3 D835Y, < 0.003 µM; at MAP4K4 it was 0.035 µM; on PDGFR-alpha it was 0.01 µM. The IC50 on PDGFR-beta worked out at 0.019 µM; at PRKG2, 0.067 µM; at RSK1, 0.023 µM; on RSK3, 0.17 µM; at RSK4, 0.078 µM.

(Values after patent publication EP2047849A1 (KTB Tumorforschungsgesellschaft mbH, priority 2007, dated 2009).)
